# Reference: patent US10004701B2, “Methods and compositions for treating infection” (UNIVERSITY OF ROCHESTER, priority 2012, dated 2018)
# Counter-ions that a name gives are not always drawn. Like-named read-outs stand apart in the source and are kept apart here.
# Legend:
# Assay in all cases: AK assay 384-well format, Prestwick library screening
# [1] = test system: A. baumannii strain 98-37-09; type: cell-based, Acinetobacter baumannii; conditions: 50 μM final drug concentration; for fold induction at 50 µM: Acinetobacter baumannii, 983709, 3 h
# K. pneumoniae = type: cell-based, Klebsiella pneumoniae; conditions: 50 μM final drug concentration; for fold induction at 50 µM: Klebsiella pneumoniae, 3 h
# [2] = test system: S. aureus strain USA300-0114; type: cell-based, Staphylococcus aureus; conditions: 50 μM final drug concentration; for fold induction at 50 µM: Staphylococcus aureus, USA300, 3 h
# E. faecium = type: cell-based, Enterococcus faecium; conditions: 50 μM final drug concentration; for fold induction at 50 µM: Enterococcus faecium, 3 h
# P. aeruginosa = type: cell-based, Pseudomonas aeruginosa; conditions: 50 μM final drug concentration; for fold induction at 50 µM: Pseudomonas aeruginosa, 3 h
# E. cloacae = type: cell-based, Enterobacter cloacae; conditions: 50 μM final drug concentration; for fold induction at 50 µM: Enterobacter cloacae, 3 h
# E. coli = type: cell-based, Escherichia coli; conditions: 50 μM final drug concentration; for fold induction at 50 µM: Escherichia coli, 3 h
# [3] = planktonic A. baumannii, cutoff for positive-scoring molecules 3-fold increase, read-out: AK-based Prestwick Library Screening Results, A. baumannii (increase in extracellular AK activity)
# [4] = planktonic K. pneumoniae, cutoff for positive-scoring molecules 3-fold increase, read-out: AK-based Prestwick Library Screening Results, K. pneumoniae (increase in extracellular AK activity)
# [5] = planktonic S. aureus, cutoff for positive-scoring molecules 3-fold increase, read-out: AK-based Prestwick Library Screening Results, S. aureus (increase in extracellular AK activity)
# [6] = planktonic E. faecium, cutoff for positive-scoring molecules 3-fold increase, read-out: AK-based Prestwick Library Screening Results, E. faecium (increase in extracellular AK activity)
# [7] = planktonic P. aeruginosa, cutoff for positive-scoring molecules 3-fold increase, read-out: AK-based Prestwick Library Screening Results, P. aeruginosa (increase in extracellular AK activity)
# [8] = planktonic E. cloacae, cutoff for positive-scoring molecules 3-fold increase, read-out: AK-based Prestwick Library Screening Results, E. cloacae (increase in extracellular AK activity)
# [9] = planktonic E. coli, cutoff for positive-scoring molecules 3-fold increase, read-out: AK-based Prestwick Library Screening Results, E. coli (increase in extracellular AK activity)
# [10] = 384-well format, cutoff for positive-scoring molecules 3-fold increase, read-out: AK-based Prestwick Library Screening Results, A. baumannii (increase in extracellular AK activity)
# [11] = 384-well format, cutoff for positive-scoring molecules 3-fold increase, read-out: AK-based Prestwick Library Screening Results, K. pneumoniae (increase in extracellular AK activity)
# [12] = 384-well format, cutoff for positive-scoring molecules 3-fold increase, read-out: AK-based Prestwick Library Screening Results, S. aureus (increase in extracellular AK activity)
# [13] = 384-well format, cutoff for positive-scoring molecules 3-fold increase, read-out: AK-based Prestwick Library Screening Results, E. faecium (increase in extracellular AK activity)
# [14] = 384-well format, cutoff for positive-scoring molecules 3-fold increase, read-out: AK-based Prestwick Library Screening Results, P. aeruginosa (increase in extracellular AK activity)
# [15] = 384-well format, cutoff for positive-scoring molecules 3-fold increase, read-out: AK-based Prestwick Library Screening Results, E. cloacae (increase in extracellular AK activity)
# [16] = 384-well format, cutoff for positive-scoring molecules 3-fold increase, read-out: AK-based Prestwick Library Screening Results, E. coli (increase in extracellular AK activity)
# [17] = planktonic, cutoff for positive 3-fold increase
smiles,measurement,setting,value
CCOC(=O)Oc1c(OC)cc(C(=O)O[C@@H]2C[C@@H]3CN4CCc5c([nH]c6cc(OC)ccc56)[C@H]4C[C@@H]3[C@H](C(=O)OC)[C@H]2OC)cc1OC [Syrosingopine],fold induction at 50 µM,[1]; [3],0.6
same,fold induction at 50 µM,K. pneumoniae; [4],0.5
same,fold induction at 50 µM,[2]; [5],0.3
same,fold induction at 50 µM,E. faecium; [6],0.9
same,fold induction at 50 µM,P. aeruginosa; [7],0.5
same,fold induction at 50 µM,E. cloacae; [8],0.6
same,fold induction at 50 µM,E. coli; [9],0.6
Cc1c(-c2ccccc2)oc2c(C(=O)OCCN3CCCCC3)cccc2c1=O [Flavoxate hydrochloride],fold induction at 50 µM,[1]; [10],0.5
same,fold induction at 50 µM,K. pneumoniae; [11],0.6
same,fold induction at 50 µM,[2]; [12],0.6
same,fold induction at 50 µM,E. faecium; [13],0.9
same,fold induction at 50 µM,P. aeruginosa; [14],0.6
same,fold induction at 50 µM,E. cloacae; [15],0.6
same,fold induction at 50 µM,E. coli; [16],0.5
Cc1cc2cc3c(C)cc(=O)oc3c(C)c2o1 [Trioxsalen],fold induction at 50 µM,"[1]; cutoff for positive-scoring molecules 3-fold increase, read-out: AK-based Prestwick Library Screening Results, A. baumannii (fold increase in extracellular AK activity)",1.2
same,fold induction at 50 µM,"K. pneumoniae; cutoff for positive-scoring molecules 3-fold increase, read-out: AK-based Prestwick Library Screening Results, K. pneumoniae (fold increase in extracellular AK activity)",1
same,fold induction at 50 µM,"[2]; cutoff for positive-scoring molecules 3-fold increase, read-out: AK-based Prestwick Library Screening Results, S. aureus (fold increase in extracellular AK activity)",0.9
same,fold induction at 50 µM,"E. faecium; cutoff for positive-scoring molecules 3-fold increase, read-out: AK-based Prestwick Library Screening Results, E. faecium (fold increase in extracellular AK activity)",0.9
same,fold induction at 50 µM,"P. aeruginosa; cutoff for positive-scoring molecules 3-fold increase, read-out: AK-based Prestwick Library Screening Results, P. aeruginosa (fold increase in extracellular AK activity)",1
same,fold induction at 50 µM,"E. cloacae; cutoff for positive-scoring molecules 3-fold increase, read-out: AK-based Prestwick Library Screening Results, E. cloacae (fold increase in extracellular AK activity)",1.3
same,fold induction at 50 µM,"E. coli; cutoff for positive-scoring molecules 3-fold increase, read-out: AK-based Prestwick Library Screening Results, E. coli (fold increase in extracellular AK activity)",1.2
CN(C)CCCSC(=N)N [Dimaprit dihydrochloride],fold induction at 50 µM,"[1]; planktonic A. baumannii, positive cutoff 3-fold increase, read-out: AK-based Prestwick library screening result, A. baumannii (fold increase in extracellular AK activity)",0.8
same,fold induction at 50 µM,"K. pneumoniae; planktonic K. pneumoniae, positive cutoff 3-fold increase, read-out: AK-based Prestwick library screening result, K. pneumoniae (fold increase in extracellular AK activity)",0.7
same,fold induction at 50 µM,"[2]; planktonic S. aureus, positive cutoff 3-fold increase, read-out: AK-based Prestwick library screening result, S. aureus (fold increase in extracellular AK activity)",0.7
same,fold induction at 50 µM,"E. faecium; planktonic E. faecium, positive cutoff 3-fold increase, read-out: AK-based Prestwick library screening result, E. faecium (fold increase in extracellular AK activity)",0.9
same,fold induction at 50 µM,"P. aeruginosa; planktonic P. aeruginosa, positive cutoff 3-fold increase, read-out: AK-based Prestwick library screening result, P. aeruginosa (fold increase in extracellular AK activity)",0.8
same,fold induction at 50 µM,"E. cloacae; planktonic E. cloacae, positive cutoff 3-fold increase, read-out: AK-based Prestwick library screening result, E. cloacae (fold increase in extracellular AK activity)",1
same,fold induction at 50 µM,"E. coli; planktonic E. coli, positive cutoff 3-fold increase, read-out: AK-based Prestwick library screening result, E. coli (fold increase in extracellular AK activity)",0.8
CN(C)[C@@H]1C(O)=C(C(=O)NCNCCCC[C@H](N)C(=O)O)C(=O)[C@@]2(O)C(O)=C3C(=O)c4c(O)cccc4[C@@](C)(O)[C@H]3C[C@@H]12 [Lymecycline],fold induction at 50 µM,"[1]; planktonic A. baumannii, […], read-out: AK-based Prestwick library screening result, A. baumannii (fold increase in extracellular AK activity)",0.8
same,fold induction at 50 µM,"K. pneumoniae; planktonic K. pneumoniae, […], read-out: AK-based Prestwick library screening result, K. pneumoniae (fold increase in extracellular AK activity)",0.7
same,fold induction at 50 µM,"[2]; planktonic S. aureus, […], read-out: AK-based Prestwick library screening result, S. aureus (fold increase in extracellular AK activity)",0.7
same,fold induction at 50 µM,"E. faecium; planktonic E. faecium, […], read-out: AK-based Prestwick library screening result, E. faecium (fold increase in extracellular AK activity)",1
same,fold induction at 50 µM,"P. aeruginosa; planktonic P. aeruginosa, […], read-out: AK-based Prestwick library screening result, P. aeruginosa (fold increase in extracellular AK activity)",0.7
same,fold induction at 50 µM,"E. cloacae; planktonic E. cloacae, […], read-out: AK-based Prestwick library screening result, E. cloacae (fold increase in extracellular AK activity)",1.2
same,fold induction at 50 µM,"E. coli; planktonic E. coli, […], read-out: AK-based Prestwick library screening result, E. coli (fold increase in extracellular AK activity)",0.8
Nc1nc(O)c2ncn(COC(CO)CO)c2n1 [Ganciclovir],fold induction at 50 µM,"[1]; planktonic, cutoff for positive-scoring molecules 3-fold increase, read-out: AK-based Prestwick Library Screening Results, A. baumannii (fold increase in extracellular AK activity)",0.8
same,fold induction at 50 µM,"K. pneumoniae; planktonic, cutoff for positive-scoring molecules 3-fold increase, read-out: AK-based Prestwick Library Screening Results, K. pneumoniae (fold increase in extracellular AK activity)",0.7
same,fold induction at 50 µM,"[2]; planktonic, cutoff for positive-scoring molecules 3-fold increase, read-out: AK-based Prestwick Library Screening Results, S. aureus (fold increase in extracellular AK activity)",0.9
same,fold induction at 50 µM,"E. faecium; planktonic, cutoff for positive-scoring molecules 3-fold increase, read-out: AK-based Prestwick Library Screening Results, E. faecium (fold increase in extracellular AK activity)",0.9
same,fold induction at 50 µM,"P. aeruginosa; planktonic, cutoff for positive-scoring molecules 3-fold increase, read-out: AK-based Prestwick Library Screening Results, P. aeruginosa (fold increase in extracellular AK activity)",0.9
same,fold induction at 50 µM,"E. cloacae; planktonic, cutoff for positive-scoring molecules 3-fold increase, read-out: AK-based Prestwick Library Screening Results, E. cloacae (fold increase in extracellular AK activity)",1.4
same,fold induction at 50 µM,"E. coli; planktonic, cutoff for positive-scoring molecules 3-fold increase, read-out: AK-based Prestwick Library Screening Results, E. coli (fold increase in extracellular AK activity)",0.9
C/C=C1/C[N@+]2(C)CC[C@]34C(=C(C=O)[C@H]1C[C@@H]32)Nc1ccccc14.[Cl-] [Fluorocurarine chloride],"AK-based Prestwick Library Screening Results, A. baumannii (fold increase in extracellular AK activity)","[1]; planktonic, […]",0.9
same,"AK-based Prestwick Library Screening Results, K. pneumoniae (fold increase in extracellular AK activity)","K. pneumoniae; planktonic, […]",0.7
same,"AK-based Prestwick Library Screening Results, S. aureus (fold increase in extracellular AK activity)","[2]; planktonic, […]",0.8
same,"AK-based Prestwick Library Screening Results, E. faecium (fold increase in extracellular AK activity)","E. faecium; planktonic, […]",0.9
same,"AK-based Prestwick Library Screening Results, P. aeruginosa (fold increase in extracellular AK activity)","P. aeruginosa; planktonic, […]",0.8
same,"AK-based Prestwick Library Screening Results, E. cloacae (fold increase in extracellular AK activity)","E. cloacae; planktonic, […]",1.4
same,"AK-based Prestwick Library Screening Results, E. coli (fold increase in extracellular AK activity)","E. coli; planktonic, […]",0.9
COc1c2occc2cc2ccc(=O)oc12 [Methoxy-8-psoralen],"AK-based Prestwick Library Screening Results, A. baumannii (fold increase in extracellular AK activity)",[1]; [17],1.0
same,"AK-based Prestwick Library Screening Results, K. pneumoniae (fold increase in extracellular AK activity)",K. pneumoniae; [17],0.9
same,"AK-based Prestwick Library Screening Results, S. aureus (fold increase in extracellular AK activity)",[2]; [17],1.0
same,"AK-based Prestwick Library Screening Results, E. faecium (fold increase in extracellular AK activity)",E. faecium; [17],1.1
same,"AK-based Prestwick Library Screening Results, P. aeruginosa (fold increase in extracellular AK activity)",P. aeruginosa; [17],1.0
same,"AK-based Prestwick Library Screening Results, E. cloacae (fold increase in extracellular AK activity)",E. cloacae; [17],1.5
same,"AK-based Prestwick Library Screening Results, E. coli (fold increase in extracellular AK activity)",E. coli; [17],1.1
C[C@@H](O)[C@H]1C(=O)N2C(C(=O)O)=C(SCCN=CN)C[C@H]12 [Imipenem],fold induction at 50 µM,[1]; [3],1.2
same,fold induction at 50 µM,K. pneumoniae; [4],1.7
same,fold induction at 50 µM,[2]; [5],2.5
same,fold induction at 50 µM,E. faecium; [6],0.9
same,fold induction at 50 µM,P. aeruginosa; [7],1
same,fold induction at 50 µM,E. cloacae; [8],2.4
same,fold induction at 50 µM,E. coli; [9],12.1
CC[C@@H](CO)NCCN[C@@H](CC)CO [Ethambutol dihydrochloride],fold induction at 50 µM,[1]; [10],0.8
same,fold induction at 50 µM,K. pneumoniae; [11],0.7
same,fold induction at 50 µM,[2]; [12],0.6
same,fold induction at 50 µM,E. faecium; [13],0.9
same,fold induction at 50 µM,P. aeruginosa; [14],0.7
same,fold induction at 50 µM,E. cloacae; [15],1.1
same,fold induction at 50 µM,E. coli; [16],0.9
